Consider 13 compounds from ChEMBL document CHEMBL5465560, “Selectivity Literature for EUbOPEN Chemogenomic Library” (2024).

Assay [1] deals with Serine/threonine-protein kinase 10 (Homo sapiens) (UniProt O94804). Description: Selectivity interaction (Ambit KINOMEscan and KiNATiv profiling in Jurkat cells) EUB0000090b STK10. It is filed as cell-based. The settings on record: at 1 µM.
Assay [2] has as its target Beta-2 adrenergic receptor (Homo sapiens, UniProt P07550). Put plainly: Selectivity interaction (GPCR panel (PDSP screen)) EUB0001079a ADRB2. The settings on record: at 10 µM.
The target in assay [3] is Calcium/calmodulin-dependent protein kinase type II subunit delta (Homo sapiens) (UniProt Q13557). Description: Selectivity interaction (KinomeScan (DiscoverX)) EUB0001079a CAMK2D. The settings on record: at 1 µM.
Assay [4] addresses Serine/threonine-protein kinase OSR1 (Homo sapiens) (UniProt O95747). Put plainly: Selectivity interaction (KinomeScan (DiscoverX)) EUB0001079a OXSR1. The note with it: at 1 µM.
In assay [5] the target is Fibroblast growth factor receptor 4 (Homo sapiens, UniProt P22455). Put plainly: Selectivity interaction (Kinase screening (Nanosyn)) EUB0000604a FGFR4.
Assay [6] has as its target D(4) dopamine receptor (Homo sapiens) (UniProt P21917). Put plainly: Selectivity interaction (Eurofins CEREP Diversity Profile (receptors and ion channels)) EUB0000279b DRD4. The settings on record: at 10 µM.
For assay [7], the target named is Casein kinase II subunit alpha (Homo sapiens, UniProt P68400). Put plainly: Selectivity interaction (KinomeScan (DiscoverX)) EUB0000045b CSNK2A1.
Assay [8] concerns the target T1, Receptor-interacting serine/threonine-protein kinase 1 (Homo sapiens) (UniProt Q13546).
T1 sequence (whole entry): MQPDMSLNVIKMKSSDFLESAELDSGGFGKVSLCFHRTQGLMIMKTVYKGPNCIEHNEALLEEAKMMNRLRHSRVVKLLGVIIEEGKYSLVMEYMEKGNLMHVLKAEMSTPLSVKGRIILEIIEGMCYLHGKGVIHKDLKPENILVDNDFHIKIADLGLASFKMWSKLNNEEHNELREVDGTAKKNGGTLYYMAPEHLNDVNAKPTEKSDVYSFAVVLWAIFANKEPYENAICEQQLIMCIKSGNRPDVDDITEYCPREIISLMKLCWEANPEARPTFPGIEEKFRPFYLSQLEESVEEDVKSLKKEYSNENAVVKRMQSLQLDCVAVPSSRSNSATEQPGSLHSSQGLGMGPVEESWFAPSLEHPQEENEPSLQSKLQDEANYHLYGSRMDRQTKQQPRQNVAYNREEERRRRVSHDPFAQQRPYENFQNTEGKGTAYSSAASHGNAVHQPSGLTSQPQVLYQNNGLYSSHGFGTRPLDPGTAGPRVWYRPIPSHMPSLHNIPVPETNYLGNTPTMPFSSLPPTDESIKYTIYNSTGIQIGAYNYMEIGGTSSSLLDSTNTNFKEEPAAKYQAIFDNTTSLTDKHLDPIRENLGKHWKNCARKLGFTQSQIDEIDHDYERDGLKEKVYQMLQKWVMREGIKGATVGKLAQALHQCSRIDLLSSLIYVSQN
Description: Selectivity interaction (KinomeScan (DiscoverX)) EUB0000666a RIPK1. The settings on record: at 10 µM.

Assay [9] deals with Proto-oncogene tyrosine-protein kinase Src (Homo sapiens, UniProt P12931). Put plainly: Selectivity interaction (Kinase panel (Z-LYTE Assay)) EUB0001632a SRC. The settings on record: at 10 µM.
In assay [10] the target is Phosphatidylinositol 4-phosphate 3-kinase C2 domain-containing subunit beta (Homo sapiens) (UniProt O00750). Description: Selectivity interaction (KinomeScan (DiscoverX)) EUB0000607a PIK3C2B. The note with it: at 10 µM.
Assay [11] addresses T2, Testis-specific serine/threonine-protein kinase 3 (Homo sapiens) (UniProt Q96PN8).
T2 sequence (whole entry): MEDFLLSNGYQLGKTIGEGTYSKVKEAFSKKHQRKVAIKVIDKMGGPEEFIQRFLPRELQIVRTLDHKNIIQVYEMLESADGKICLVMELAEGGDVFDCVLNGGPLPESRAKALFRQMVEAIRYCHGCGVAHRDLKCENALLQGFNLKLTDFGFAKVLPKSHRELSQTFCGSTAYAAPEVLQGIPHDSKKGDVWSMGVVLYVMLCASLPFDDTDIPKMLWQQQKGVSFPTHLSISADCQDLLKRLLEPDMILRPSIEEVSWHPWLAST
Description: Selectivity interaction (SelectScreen profiling (Invitrogen)) EUB0000607a TSSK3. The settings on record: at 2 µM.

For assay [12], the target named is Mitogen-activated protein kinase 3 (Homo sapiens, UniProt P27361). Description: Selectivity interaction (KinomeScan (DiscoverX)) EUB0000229b MAPK3. The note with it: at 10 µM.
Assay [13] deals with Serine/threonine-protein kinase PLK1 (Homo sapiens, UniProt P53350). Description: Selectivity interaction (KinomeScan (DiscoverX)) EUB0000229b PLK1. The settings on record: at 10 µM.
Assay [14] deals with Glucocorticoid receptor (Homo sapiens, UniProt P04150). Put plainly: Selectivity interaction (Glucocorticoid receptor binding assay, human recombinant ) EUB0000877a NR3C1.
Assay [15] deals with Mitogen-activated protein kinase kinase kinase kinase 1 (Homo sapiens) (UniProt Q92918). Put plainly: Selectivity interaction (ActivX KiNativ screen (ex vivo kinase selectivity in human PBMCs)) EUB0001619a MAP4K1. Format: cell-based. The settings on record: PBMC, at 1 µM.
The target in assay [16] is Prostaglandin G/H synthase 1 (Homo sapiens) (UniProt P23219). Description: Selectivity interaction (Safety Panel 44tm (Eurofins)) EUB0000162b PTGS1. The settings on record: at 10 µM.
Assay [17] deals with Cyclin-dependent kinase 7 (Homo sapiens, UniProt P50613). Description: Selectivity interaction (Kinase panel (KiNativ target engagement assay in Jurkat cells)) EUB0001635a CDK7. The settings on record: Selectivity number of off-targets 0.0, Selectivity number of targets 233.0, Source Knowledge https://www.sciencedirect.com/science/article/pii/S2451945619300674?via%3Dihub, at 1 µM. It is filed as cell-based.

pIC50: −log10 of the molar value.

Sequence of Casein kinase II subunit alpha (P68400 whole entry, looked up): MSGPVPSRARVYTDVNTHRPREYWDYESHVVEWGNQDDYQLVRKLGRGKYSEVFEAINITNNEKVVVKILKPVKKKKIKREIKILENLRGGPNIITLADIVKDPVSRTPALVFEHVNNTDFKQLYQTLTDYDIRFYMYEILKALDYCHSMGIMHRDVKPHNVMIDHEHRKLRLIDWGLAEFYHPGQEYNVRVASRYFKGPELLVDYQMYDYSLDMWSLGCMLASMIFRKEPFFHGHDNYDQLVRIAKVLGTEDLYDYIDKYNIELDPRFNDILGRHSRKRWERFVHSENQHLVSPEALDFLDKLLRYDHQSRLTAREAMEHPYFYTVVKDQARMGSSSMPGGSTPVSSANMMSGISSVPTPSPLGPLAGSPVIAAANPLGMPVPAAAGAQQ
Sequence of Proto-oncogene tyrosine-protein kinase Src (P12931 2-536 limits assumed): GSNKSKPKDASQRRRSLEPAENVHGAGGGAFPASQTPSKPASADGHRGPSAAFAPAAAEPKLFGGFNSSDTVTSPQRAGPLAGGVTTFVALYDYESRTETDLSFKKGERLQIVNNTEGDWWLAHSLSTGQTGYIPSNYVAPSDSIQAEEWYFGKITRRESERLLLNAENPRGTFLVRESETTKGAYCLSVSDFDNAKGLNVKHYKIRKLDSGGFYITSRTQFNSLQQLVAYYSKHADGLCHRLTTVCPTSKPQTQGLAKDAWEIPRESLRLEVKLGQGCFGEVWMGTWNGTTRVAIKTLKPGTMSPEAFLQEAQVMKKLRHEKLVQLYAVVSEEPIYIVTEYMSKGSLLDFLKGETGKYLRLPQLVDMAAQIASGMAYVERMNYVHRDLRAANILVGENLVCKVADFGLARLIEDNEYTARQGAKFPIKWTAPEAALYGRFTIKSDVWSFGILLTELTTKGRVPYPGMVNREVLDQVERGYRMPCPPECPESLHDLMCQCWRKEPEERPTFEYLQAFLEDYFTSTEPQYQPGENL
Sequence of Fibroblast growth factor receptor 4 (P22455 22-802 limits assumed): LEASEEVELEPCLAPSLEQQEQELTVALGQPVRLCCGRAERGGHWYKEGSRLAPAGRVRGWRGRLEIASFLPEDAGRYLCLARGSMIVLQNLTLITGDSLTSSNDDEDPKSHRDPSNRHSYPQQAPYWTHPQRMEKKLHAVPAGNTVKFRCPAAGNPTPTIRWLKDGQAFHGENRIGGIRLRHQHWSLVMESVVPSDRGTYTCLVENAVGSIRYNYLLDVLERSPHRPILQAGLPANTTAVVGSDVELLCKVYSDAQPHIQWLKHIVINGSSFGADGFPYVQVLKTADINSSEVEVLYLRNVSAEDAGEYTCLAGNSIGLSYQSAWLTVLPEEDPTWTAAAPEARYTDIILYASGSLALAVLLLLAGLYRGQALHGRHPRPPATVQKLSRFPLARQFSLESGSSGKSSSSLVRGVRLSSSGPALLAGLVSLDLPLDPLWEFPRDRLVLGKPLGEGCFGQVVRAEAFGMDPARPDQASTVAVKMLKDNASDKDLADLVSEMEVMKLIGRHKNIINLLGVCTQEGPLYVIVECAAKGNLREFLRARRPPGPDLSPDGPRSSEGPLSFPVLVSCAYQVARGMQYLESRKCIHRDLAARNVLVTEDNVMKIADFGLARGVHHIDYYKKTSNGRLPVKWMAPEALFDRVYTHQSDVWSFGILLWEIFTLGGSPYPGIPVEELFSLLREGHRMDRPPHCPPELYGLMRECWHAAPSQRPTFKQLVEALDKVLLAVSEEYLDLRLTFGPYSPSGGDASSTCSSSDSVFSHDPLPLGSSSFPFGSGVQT
Sequence of Serine/threonine-protein kinase 10 (Homo sapiens) (O94804 whole entry, looked up): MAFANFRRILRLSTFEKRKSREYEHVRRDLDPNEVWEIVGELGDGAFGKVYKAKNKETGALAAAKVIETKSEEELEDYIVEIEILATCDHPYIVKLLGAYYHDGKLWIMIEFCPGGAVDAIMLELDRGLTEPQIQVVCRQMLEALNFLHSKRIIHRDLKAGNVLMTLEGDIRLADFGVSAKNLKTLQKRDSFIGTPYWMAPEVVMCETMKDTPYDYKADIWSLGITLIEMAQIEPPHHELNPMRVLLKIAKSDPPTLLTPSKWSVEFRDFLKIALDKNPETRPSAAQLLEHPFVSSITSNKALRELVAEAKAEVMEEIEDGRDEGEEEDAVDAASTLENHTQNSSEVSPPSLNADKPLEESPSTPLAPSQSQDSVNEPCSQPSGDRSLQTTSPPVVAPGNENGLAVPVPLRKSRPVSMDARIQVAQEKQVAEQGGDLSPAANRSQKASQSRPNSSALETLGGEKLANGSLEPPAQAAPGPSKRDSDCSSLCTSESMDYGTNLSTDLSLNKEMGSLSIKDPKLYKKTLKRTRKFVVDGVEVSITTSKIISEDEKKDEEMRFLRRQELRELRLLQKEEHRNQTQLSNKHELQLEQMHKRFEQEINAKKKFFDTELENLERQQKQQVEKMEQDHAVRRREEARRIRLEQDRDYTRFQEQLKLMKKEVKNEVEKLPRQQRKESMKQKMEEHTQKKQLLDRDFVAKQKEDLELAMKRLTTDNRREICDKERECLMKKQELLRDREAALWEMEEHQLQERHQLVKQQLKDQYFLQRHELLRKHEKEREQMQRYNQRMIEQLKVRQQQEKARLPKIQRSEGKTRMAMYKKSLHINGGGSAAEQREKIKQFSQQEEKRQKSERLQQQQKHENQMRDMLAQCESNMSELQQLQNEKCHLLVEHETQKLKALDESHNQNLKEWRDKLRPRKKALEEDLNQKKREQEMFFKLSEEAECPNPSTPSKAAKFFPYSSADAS
Sequence of Prostaglandin G/H synthase 1 (Homo sapiens) (P23219 whole entry): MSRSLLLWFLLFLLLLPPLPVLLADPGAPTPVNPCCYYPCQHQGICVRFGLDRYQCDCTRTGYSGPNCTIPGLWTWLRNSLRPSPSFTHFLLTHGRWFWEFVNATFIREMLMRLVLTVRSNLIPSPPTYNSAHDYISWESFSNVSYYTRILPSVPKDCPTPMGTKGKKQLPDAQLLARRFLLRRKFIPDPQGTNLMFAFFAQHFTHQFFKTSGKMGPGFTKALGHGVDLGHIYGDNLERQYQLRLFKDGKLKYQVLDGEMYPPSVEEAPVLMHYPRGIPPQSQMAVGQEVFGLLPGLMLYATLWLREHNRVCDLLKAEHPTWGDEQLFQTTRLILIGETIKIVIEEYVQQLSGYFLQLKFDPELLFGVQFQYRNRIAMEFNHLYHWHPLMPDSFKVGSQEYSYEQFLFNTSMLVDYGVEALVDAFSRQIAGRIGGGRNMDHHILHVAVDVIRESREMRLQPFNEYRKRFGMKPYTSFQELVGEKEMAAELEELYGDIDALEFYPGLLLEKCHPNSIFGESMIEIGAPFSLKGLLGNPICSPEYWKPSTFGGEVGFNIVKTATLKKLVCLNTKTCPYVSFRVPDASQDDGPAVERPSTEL
Sequence of Beta-2 adrenergic receptor (P07550 whole entry, looked up): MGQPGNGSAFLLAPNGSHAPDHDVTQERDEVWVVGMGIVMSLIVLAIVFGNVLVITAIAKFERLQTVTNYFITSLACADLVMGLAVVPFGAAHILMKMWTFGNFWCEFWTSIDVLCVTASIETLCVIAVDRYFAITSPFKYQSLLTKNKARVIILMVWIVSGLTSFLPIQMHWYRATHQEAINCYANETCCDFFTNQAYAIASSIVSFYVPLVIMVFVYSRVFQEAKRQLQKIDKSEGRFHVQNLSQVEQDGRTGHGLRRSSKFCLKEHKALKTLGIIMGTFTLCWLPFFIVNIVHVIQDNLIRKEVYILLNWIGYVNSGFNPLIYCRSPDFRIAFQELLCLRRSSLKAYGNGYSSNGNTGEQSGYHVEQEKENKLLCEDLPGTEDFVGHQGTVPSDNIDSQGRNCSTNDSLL
Sequence of Cyclin-dependent kinase 7 (P50613 whole entry): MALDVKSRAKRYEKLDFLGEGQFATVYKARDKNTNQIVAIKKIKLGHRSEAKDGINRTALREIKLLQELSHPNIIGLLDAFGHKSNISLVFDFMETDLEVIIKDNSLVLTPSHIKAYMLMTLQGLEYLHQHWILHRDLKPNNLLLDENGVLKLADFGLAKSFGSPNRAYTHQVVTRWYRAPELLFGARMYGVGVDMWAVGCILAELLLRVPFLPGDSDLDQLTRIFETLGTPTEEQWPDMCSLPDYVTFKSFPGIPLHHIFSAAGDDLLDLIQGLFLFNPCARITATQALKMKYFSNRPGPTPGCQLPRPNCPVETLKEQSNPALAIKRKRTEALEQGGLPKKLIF
Sequence of D(4) dopamine receptor (Homo sapiens) (P21917 whole entry): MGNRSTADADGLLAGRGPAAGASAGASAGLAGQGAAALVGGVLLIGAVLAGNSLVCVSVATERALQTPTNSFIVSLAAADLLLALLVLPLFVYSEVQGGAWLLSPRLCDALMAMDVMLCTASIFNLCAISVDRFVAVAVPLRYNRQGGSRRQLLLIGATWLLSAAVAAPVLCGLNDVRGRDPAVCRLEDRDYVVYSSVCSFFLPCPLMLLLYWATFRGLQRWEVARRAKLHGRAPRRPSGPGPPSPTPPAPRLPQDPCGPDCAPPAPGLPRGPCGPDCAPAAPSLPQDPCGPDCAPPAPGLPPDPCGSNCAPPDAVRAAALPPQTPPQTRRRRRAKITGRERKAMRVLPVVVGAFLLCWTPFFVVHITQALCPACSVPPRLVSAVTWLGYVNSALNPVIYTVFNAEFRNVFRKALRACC
Sequence of Serine/threonine-protein kinase OSR1 (Homo sapiens) (O95747 2-527 limits assumed): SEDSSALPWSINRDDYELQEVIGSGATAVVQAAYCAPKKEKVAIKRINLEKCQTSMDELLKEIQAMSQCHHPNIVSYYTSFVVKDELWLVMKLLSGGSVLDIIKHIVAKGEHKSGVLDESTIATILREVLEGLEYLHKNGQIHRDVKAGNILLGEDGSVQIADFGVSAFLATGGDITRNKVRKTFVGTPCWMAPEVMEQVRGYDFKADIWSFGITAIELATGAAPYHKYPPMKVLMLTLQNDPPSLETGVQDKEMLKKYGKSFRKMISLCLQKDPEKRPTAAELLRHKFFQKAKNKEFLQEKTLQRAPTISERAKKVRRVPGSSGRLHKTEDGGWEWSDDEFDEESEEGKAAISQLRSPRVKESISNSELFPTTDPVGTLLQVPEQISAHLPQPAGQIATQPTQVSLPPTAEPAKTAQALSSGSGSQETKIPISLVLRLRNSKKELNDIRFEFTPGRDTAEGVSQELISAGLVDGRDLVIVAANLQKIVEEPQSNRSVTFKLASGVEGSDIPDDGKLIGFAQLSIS

`CN(C)C/C=C/C(=O)Nc1ccc(C(=O)N2CCCC(Nc3ncc(Cl)c(-c4c[nH]c5ccccc45)n3)C2)cc1` (stereo not drawn): in assay [1], the % of control was 80%.

Consider `Nc1cnc(N2CCc3cc(S(=O)(=O)Nc4c(F)cc(Cl)cc4F)cc(N4CCCC4=O)c32)nc1` [TP-020n], for which the % of inhibition in assay [2] was -3.08%. Moreover, the % of control in assay [3] turned out to be 100%; in assay [4], 75%.

`Cc1cnc(Nc2ccc(F)cc2Cl)nc1-c1c[nH]c(C(=O)N[C@H](CO)c2cccc(Cl)c2)c1`: the % of inhibition in assay [5] was found to be 0.3%.

Turning to `CC(=O)c1cc(-c2ccccc2OCC2CC2)c2ncccn12`, in assay [6], the % of control stood at 103%.

Consider `C=CC(=O)Nc1cc(-n2c(=O)ccc3cnc4ccc(-c5ccc(NS(C)(=O)=O)cc5)cc4c32)ccc1C`, for which the % of control in [7] (at 1 µM) is 84%; in assay [7] (at 10 µM), 51%.

Take `O=C(NOC[C@H](O)CO)c1ccc(F)c(F)c1Nc1ccc(I)cc1F`: in assay [8], the % of control is 85%.

The compound `Cn1cc(-n2cnc3c(NCc4nc5cc(Cl)c(Cl)cc5[nH]4)nc(N4CCOCC4)nc32)cn1` returned a % of control in [9] of 6.05%.

On to `CNC(=O)Nc1ccc(-c2nc(N3CC4CCC(C3)O4)c3cnn(C4CCC5(CC4)OCCO5)c3n2)cc1`, for which the % of control in assay [10] was 25%. For the same compound, in [11], the % of inhibition was determined as 3%.

As for `COc1cc(N(C)c2ccnc3ccc(C(F)(F)F)cc23)cc(OC)c1OC`, the % binding in [12] and in assay [13] was 100% each time.

One may read the pIC50 as −log10 of the IC50, conventionally taken in molar units. Turning to `CCC(=O)N1CC[C@H](Nc2ncnc3c2CN(c2cnc(OC)c(C(F)(F)F)c2)CC3)C1` [LENIOLISIB], the pIC50 in [14] is under 4.52.

For the compound `N#Cc1cccc(-c2c[nH]c3ncnc(N4CCOCC4)c23)c1`, in [15], the % of inhibition was found to be 26%.

As to `CN(C)C(=O)Cn1cc(-c2ccc(-c3cncc4ccccc34)cc2)cn1`, the % of control in [16] is 59%.

In turn, `C=CC(=O)Nc1ccc(C(=O)Nc2[nH]nc3c2CN(C(=O)N[C@H](CN(C)C)c2ccccc2)C3(C)C)cc1` registered a % of engagement in assay [17] of 93.3%.
